Assay results: patent US10555987B2, “GHRH agonists for the treatment of ischemic disorders” (UNIVERSITY OF MIAMI, priority 2012, dated 2020)
Entries after “also recorded” stand apart in the source; their conditions may differ. Non-standard residues stand in square brackets, D forms with d. Residues, ends and D or L forms follow the SMILES beside them. *: point of attachment. Phe(F5) = N[C@@H](Cc1c(F)c(F)c(F)c(F)c1F)C(=O)O; NMeY = CN[C@@H](Cc1ccc(O)cc1)C(=O)O; Agmatine = N=C(N)NCCCCN*; Nle = CCCC[C@H](N)C(=O)O; Orn = NCCC[C@H](N)C(=O)O; Abu = CC[C@H](N)C(=O)O

Columns and labels:
[1] = test system: myocardial infarction (Fisher-344 rats); experiment: Hemodynamic analysis (pressure-volume loops), body and heart weight after MI, compared to JI-38 (Example 15, Table 16); format: in vivo, rat; design: key to ESP (End-Systolic Pressure) / EDP (End-Diastolic Pressure) / ESV (End-Systolic Volume) / PRSW (Preload Recruitable Stroke Work) / Ees (End-systolic Elastance) / dP/dt max (peak rate of the pressure rise) / dP/dt max_EDV / dP/dt min / TAU (relaxation time constant calculated by Weiss method) / SV (Stroke Volume) / CO (Cardiac Output) / SW (Stroke Work) / EF / Ea/Ees / Ea (arterial Elastance): ↓: downward arrow denotes lower than JI-38; ↑: upward arrow denotes greater than JI-38; =denotes same as JI-38; ⬇⬇: double arrow denotes greater effect; ⬆⬆: double arrow denotes greater effect; details: rat MI model, s.c. twice daily; pressure-volume loops; expressed in comparison to JI-38
Procedure, shortened: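 Female 6-month-old Fisher-344 rats after permanent left coronary ligation received GHRH agonists subcutaneously twice daily from 2 h post-surgery (n=10/group). Under ketamine/xylazine/acepromazine anesthesia, LV pressure-volume loops were recorded via carotid micromanometer catheter, calibrated by hypertonic saline bolus and cuvette method; echocardiography also serial.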

GH release = experiment: GH releasing potency in vivo, subcutaneous administration (Example 14, Table 12); design: species or system rat; details: for Serum GH level at selected time after injection (ng/ml), 0 min / Serum GH level at selected time after injection (ng/ml), 15 min / Serum GH level at selected time after injection (ng/ml), 30 min: male rats, dose 3 μg/kg, mean ± SEM
Procedure, shortened: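 Potency is expressed relative to GHRH(1-29)NH2 and JI-38 (each = 1), via equivalent GHRH(1-29)NH2 dose read from a standard curve. Peptides in 5% mannitol given i.v. or s.c. to anaesthetised male Sprague-Dawley rats (200-250 g); serum GH measured by ELISA at selected times.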

SMILES | CO (Cardiac Output) [1] | EDP (End-Diastolic Pressure) [1] | EF [1] | ESP (End-Systolic Pressure) [1] | ESV (End-Systolic Volume) [1] | Ea (arterial Elastance) [1] | Ea/Ees [1] | Ees (End-systolic Elastance) [1] | PRSW (Preload Recruitable Stroke Work) [1] | SV (Stroke Volume) [1] | SW (Stroke Work) [1] | TAU (relaxation time constant calculated by Weiss method) [1] | dP/dt max (peak rate of the pressure rise) [1] | dP/dt max_EDV [1] | dP/dt min [1] | Serum GH level at selected time after injection (ng/ml), 0 min (GH release; s.c.) [ng/mL] | Serum GH level at selected time after injection (ng/ml), 15 min (GH release; s.c.) [ng/mL] | Serum GH level at selected time after injection (ng/ml), 30 min (GH release; s.c.) [ng/mL] | Relative potency compared to GHRH(1-29), 15 min (GH release; s.c.) | Relative potency compared to GHRH(1-29), 30 min (GH release; s.c.) | also measured
CCCC[C@H](NC(=O)[C@@H](NC(=O)[C@H](CC(=O)O)NC(=O)[C@H](CCC(N)=O)NC(=O)[C@H](CC(C)C)NC(=O)[C@H](CC(C)C)NC(=O)[C@H](CCCN)NC(=O)[C@H](CCCNC(=N)N)NC(=O)[C@H](C)NC(=O)[C@H](CO)NC(=O)[C@H](CC(C)C)NC(=O)[C@H](CCC(N)=O)NC(=O)[C@H](CC)NC(=O)[C@H](CC(C)C)NC(=O)[C@@H](NC(=O)[C@H](CCCN)NC(=O)[C@H](CCCNC(=N)N)NC(=O)[C@H](Cc1ccc(O)cc1)NC(=O)[C@H](CO)NC(=O)[C@H](CCC(N)=O)NC(=O)[C@@H](NC(=O)[C@H](Cc1ccccc1)NC(=O)[C@@H](NC(=O)[C@H](C)NC(=O)[C@H](CC(=O)O)NC(=O)[C@@H](C)NC(=O)[C@H](Cc1ccc(O)cc1)NC)[C@@H](C)CC)[C@@H](C)O)C(C)C)[C@@H](C)CC)C(=O)N[C@@H](CC(=O)O)C(=O)NCCCCNC(=N)N [Peptide P-20361, [N—Me-Tyr^1, D-Ala^2, Gln^8, Orn^12, Abu^15, Orn^21, Nle^27, Asp^28, Agm^29] hGHRH (1-29)NH2] (H-[NMeY][dA]DAIFTQSYR[Orn]VL[Abu]QLSAR[Orn]LLQDI[Nle]D-Agmatine) | = | ↑ | = | ↑ | ↑ | ↑ | ↓ | ↑ | = | ↓ | ↓ | ↑ | = | ↑ | = | 46.1 ± 6.3 | 275.9 ± 46.4 | 142.6 ± 18.4 | 80 | 134.1 | Relative potency compared to JI-38, 15 min (GH release; s.c.): 1.27; Relative potency compared to JI-38, 30 min (GH release; s.c.): 1.20
CCCC[C@H](NC(=O)[C@@H](NC(=O)[C@H](CC(=O)O)NC(=O)[C@H](CCC(N)=O)NC(=O)[C@H](CC(C)C)NC(=O)[C@H](CC(C)C)NC(=O)[C@H](CCCN)NC(=O)[C@H](CCCNC(=N)N)NC(=O)[C@H](C)NC(=O)[C@H](CO)NC(=O)[C@H](CC(C)C)NC(=O)[C@H](CCC(N)=O)NC(=O)[C@H](CC)NC(=O)[C@H](CC(C)C)NC(=O)[C@@H](NC(=O)[C@H](CCCN)NC(=O)[C@H](CCCNC(=N)N)NC(=O)[C@H](Cc1ccc(O)cc1)NC(=O)[C@H](CO)NC(=O)[C@H](CC(N)=O)NC(=O)[C@@H](NC(=O)[C@H](Cc1ccccc1)NC(=O)[C@@H](NC(=O)[C@H](C)NC(=O)[C@H](CC(=O)O)NC(=O)[C@@H](C)NC(=O)[C@H](Cc1ccc(O)cc1)NC)[C@@H](C)CC)[C@@H](C)O)C(C)C)[C@@H](C)CC)C(=O)N[C@@H](CC(=O)O)C(=O)NCCCCNC(=N)N [Peptide P-20367, [N—Me-Tyr^1, D-Ala^2, Orn^12, Abu^15, Orn^21, Nle^27, Asp^28, Agm^29]hGHRH(1-29)NH2] (H-[NMeY][dA]DAIFTNSYR[Orn]VL[Abu]QLSAR[Orn]LLQDI[Nle]D-Agmatine) | ↑ | ↑ | = | ↑ | ↑ | = | ↓ | = | = | = | ↓ | = | = | = | = | 41.1 ± 5.6 | 244.0 ± 25.1 | 141.2 ± 12.3 | 68.1 | 131.7 | Relative potency compared to JI-38, 15 min (GH release; s.c.): 1.08; Relative potency compared to JI-38, 30 min (GH release; s.c.): 1.18
CCCC[C@H](NC(=O)[C@@H](NC(=O)[C@H](CC(=O)O)NC(=O)[C@H](CCC(N)=O)NC(=O)[C@H](CC(C)C)NC(=O)[C@H](CC(C)C)NC(=O)[C@H](CCCN)NC(=O)[C@H](CCCNC(=N)N)NC(=O)[C@H](C)NC(=O)[C@H](CO)NC(=O)[C@H](CC(C)C)NC(=O)[C@H](CCC(N)=O)NC(=O)[C@H](CC)NC(=O)[C@H](CC(C)C)NC(=O)[C@@H](NC(=O)[C@H](CCCN)NC(=O)[C@H](CCCNC(=N)N)NC(=O)[C@H](Cc1ccc(O)cc1)NC(=O)[C@H](CO)NC(=O)[C@H](CCC(N)=O)NC(=O)[C@@H](NC(=O)[C@H](Cc1ccccc1)NC(=O)[C@@H](NC(=O)[C@H](C)NC(=O)[C@H](CC(=O)O)NC(=O)[C@@H](C)NC(=O)[C@H](Cc1ccc(O)cc1)NC)[C@@H](C)CC)[C@@H](C)O)C(C)C)[C@@H](C)CC)C(=O)N[C@@H](CC(=O)O)C(=O)N[C@@H](CCCNC(=N)N)C(=O)NC [Peptide P-27403, [N—Me-Tyr^1, D-Ala^2, Gln^8, Orn^12, Abu^15, Orn^21, Nle^27, Asp^28]hGHRH(1-29)NH—CH3] (H-[NMeY][dA]DAIFTQSYR[Orn]VL[Abu]QLSAR[Orn]LLQDI[Nle]DR-NHMe) | ↑ | ↑ | = | = | ↑ | = | ↓ | = | = | = | = | = | = | = | = | 39.4 ± 5.3 | 608.7 ± 35.3 | 281.7 ± 18.6 | 223.8 | 448.9 | potency as compared to JI-38 in both i.v. and s.c. tests (GH release; both i.v. and s.c. tests): increased potency as compared to JI-38; Relative GH-releasing potency compared to JI-38 in s.c. tests (fold, range over time points) (GH release; s.c., time not specified): 3.6-4.0; GH-releasing potency after s.c. administration (in words) (GH release; s.c., listed as MR-403): highest GH-releasing potency; also recorded: significantly higher potencies at 30 minutes than at 15 minutes
CCCC[C@H](NC(=O)[C@@H](NC(=O)[C@H](CC(=O)O)NC(=O)[C@H](CCC(N)=O)NC(=O)[C@H](CC(C)C)NC(=O)[C@H](CC(C)C)NC(=O)[C@H](CCCN)NC(=O)[C@H](CCCNC(=N)N)NC(=O)[C@H](C)NC(=O)[C@H](CO)NC(=O)[C@H](CC(C)C)NC(=O)[C@H](CCC(N)=O)NC(=O)[C@H](CC)NC(=O)[C@H](CC(C)C)NC(=O)[C@@H](NC(=O)[C@H](CCCN)NC(=O)[C@H](CCCNC(=N)N)NC(=O)[C@H](Cc1ccc(O)cc1)NC(=O)[C@H](CO)NC(=O)[C@H](CCC(N)=O)NC(=O)[C@@H](NC(=O)[C@H](Cc1c(F)c(F)c(F)c(F)c1F)NC(=O)[C@@H](NC(=O)[C@H](C)NC(=O)[C@H](CC(=O)O)NC(=O)[C@@H](C)NC(=O)[C@H](Cc1ccc(O)cc1)NC)[C@@H](C)CC)[C@@H](C)O)C(C)C)[C@@H](C)CC)C(=O)N[C@@H](CC(=O)O)C(=O)N[C@@H](CCCNC(=N)N)C(=O)NC [Peptide P-27404, [N—Me-Tyr^1, D-Ala^2, Fpa5^6, Orn^12, Abu^15, Orn^21, Nle^27, Asp^28]hGHRH (1-29)NH—CH3] (H-[NMeY][dA]DAI[Phe(F5)]TQSYR[Orn]VL[Abu]QLSAR[Orn]LLQDI[Nle]DR-NHMe) | ↑ | ↑ | ↑ | = | = | = | = | = | = | ↑ | = | = | = | = | = | 29.5 ± 3.2 | 320.5 ± 32.7 | 151 ± 28.5 | 97.1 | 148.4 | Relative potency compared to JI-38, 15 min (GH release; s.c.): 1.54; Relative potency compared to JI-38, 30 min (GH release; s.c.): 1.33
